Measured values reported in the supplement of paper PMC10307832.

Experiments:
Test in all cases: relative viability (nuclei count vs DMSO), 5 days (fraction); higher = more cells survive
[1] = compound: NCC(=O)Nc1ccc(-n2nc(C(F)(F)F)cc2-c2ccc3c(ccc4ccccc43)c2)cc1 + CC(=O)Nc1cccc(-n2c(=O)n(C3CC3)c(=O)c3c(Nc4ccc(I)cc4F)n(C)c(=O)c(C)c32)c1 [Trametinib] (partner 0.02 µM)
Summary of the method: (§1)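 Values are medians from duplicate plates. Each reflects relative viability, defined as the nuclei count of treated wells over that of vehicle wells. Lung cancer cell lines in 1536-well plates were pin-tool dosed one day after seeding with one drug alone or with a fixed anchor-drug dose plus five library-drug doses (not always all listed) in √10 steps, then fixed, stained and imaged at 4× after 5 days.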

[2] = compound: C1CSC2=C(C(=O)N1)SC3=C2C=C(C=C3)O [kb NB 142-70] + CC1(C)CCC(c2ccc(Cl)cc2)=C(CN2CCN(c3ccc(C(=O)NS(=O)(=O)c4ccc(N[C@H](CCN5CCOCC5)CSc5ccccc5)c(S(=O)(=O)C(F)(F)F)c4)cc3)CC2)C1 [Navitoclax] (partner 0.5 µM)
Summary of the method: as §1

[3] = compound: NCC(=O)Nc1ccc(-n2nc(C(F)(F)F)cc2-c2ccc3c(ccc4ccccc43)c2)cc1
Summary of the method: (§2)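 Viability was defined as treated-well nuclei divided by vehicle-well nuclei, with the median taken over replicate plates. Cells from lung cancer lines sat overnight at 37 °C in 1536-well plates, received five √10-spaced library-drug doses by pinning on vehicle-anchored plates, and grew 5 days without medium change before one-step fixation, permeabilisation and Hoechst staining, 4× imaging and MetaXpress nuclear counts. Only plates with control CV under 25% and at least one doubling were kept.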

kb NB 142-70 = compound: C1CSC2=C(C(=O)N1)SC3=C2C=C(C=C3)O [kb NB 142-70]
Summary of the method: as §2

kb NB 142-70 + Foretinib = compound: C1CSC2=C(C(=O)N1)SC3=C2C=C(C=C3)O [kb NB 142-70] + COc1cc2c(Oc3ccc(NC(=O)C4(C(=O)Nc5ccc(F)cc5)CC4)cc3F)ccnc2cc1OCCCN1CCOCC1 [Foretinib] (partner 0.25 µM)
Summary of the method: as §1

Cell Line | relative viability ([1]; first compound 0.02 µM) | relative viability ([1]; first compound 0.06325 µM) | relative viability ([1]; first compound 0.2 µM) | relative viability ([1]; first compound 0.6325 µM) | relative viability ([1]; first compound 2 µM) | relative viability ([2]; first compound 0.1 µM) | relative viability ([2]; first compound 1 µM) | relative viability ([2]; first compound 3.162 µM) | relative viability ([3]; 0.02 µM) | relative viability ([3]; 0.06325 µM) | relative viability ([3]; 0.2 µM) | relative viability ([3]; 0.6325 µM) | relative viability ([3]; 2 µM) | relative viability (kb NB 142-70; 0.1 µM) | relative viability (kb NB 142-70; 1 µM) | relative viability (kb NB 142-70; 3.162 µM) | relative viability (kb NB 142-70 + Foretinib; first compound 0.1 µM) | relative viability (kb NB 142-70 + Foretinib; first compound 1 µM) | relative viability (kb NB 142-70 + Foretinib; first compound 3.162 µM)
HCC-44 | 0.792 | 1.1 | 1.05 | 1.11 | 1.02 | 1 | 1.16 | 1.09 | 0.996 | 1.03 | 0.952 | 0.984 | 1 | 1.01 | 0.997 | 1.08 |  |  | 
HCC-827 | 0.572 | 0.584 | 0.58 | 0.553 | 0.521 | 1.04 | 1.02 | 1.02 | 1.03 | 1.05 | 0.987 | 1.02 | 1.1 | 1.07 | 1.03 | 0.971 | 1.08 | 0.981 | 0.852
NCI-H1623 |  |  |  |  |  |  |  |  | 1.05 | 1.02 | 0.943 | 0.923 | 1.01 | 0.98 | 1.01 | 0.951 | 0.932 | 0.843 | 0.722
NCI-H1563 |  |  |  |  |  |  |  |  | 0.992 | 0.954 | 0.997 | 1.02 | 0.968 | 1.04 | 1.02 | 1 | 0.95 | 0.986 | 0.935
ABC-1 |  |  |  |  |  |  |  |  | 0.914 | 0.926 |  | 0.996 | 0.86 | 0.984 | 0.985 | 0.494 | 1.11 | 0.979 | 0.677
NCI-H522 | 0.596 | 0.684 | 0.781 | 0.92 | 0.813 |  |  |  | 0.886 | 0.978 | 0.922 | 0.96 | 0.925 | 1.04 | 0.784 | 0.635 |  |  | 
SW 900 | 0.889 | 1.04 | 1 | 0.736 | 0.78 |  |  |  | 0.717 | 0.941 | 0.856 | 0.784 | 0.814 | 0.864 | 1.02 | 0.744 | 1.06 | 1.2 | 0.436
A549 |  |  |  |  |  | 1.27 | 1.08 | 0.142 | 1.03 | 0.987 | 1.01 | 0.949 | 0.915 | 0.96 | 0.957 | 0.689 | 0.997 | 0.95 | 0.563
NCI-H1792 | 0.486 | 0.425 | 0.471 | 0.406 | 0.436 | 0.604 | 0.619 | 0.644 | 1.05 | 0.812 | 0.875 | 0.95 | 0.911 | 0.928 | 0.937 | 0.915 |  |  | 
NCI-H1703 |  |  |  |  |  | 1.04 | 1.05 | 0.93 | 1.01 | 0.816 | 0.972 | 0.889 | 0.812 | 0.959 | 0.973 | 1.23 | 0.351 | 0.338 | 0.346
LCLC-103H | 0.67 | 0.688 | 0.694 | 0.67 | 0.618 |  |  |  | 0.957 | 1.07 | 0.963 | 0.979 | 0.966 | 1.03 | 0.984 | 1.03 | 0.715 | 0.744 | 0.815
Calu-6 |  |  |  |  |  | 0.859 | 0.891 | 0.376 | 0.962 | 1.05 | 1.03 | 1 | 0.977 | 1.04 | 0.996 | 0.614 | 0.809 | 0.896 | 0.54
NCI-H358 | 0.127 | 0.127 | 0.133 | 0.138 | 0.15 |  |  |  | 0.965 | 0.993 | 0.925 | 0.939 | 0.94 | 0.943 | 0.725 | 0.137 | 0.57 | 0.521 | 0.101
NCI-H1648 | 0.414 | 0.533 | 0.573 | 0.563 | 0.506 |  |  |  | 0.751 | 0.939 | 0.9 | 0.989 | 1.11 | 0.789 | 0.925 | 0.748 |  |  | 
EBC-1 |  |  |  |  |  | 0.415 | 0.322 | 0.22 | 1.01 | 1.03 | 1.07 | 1.02 | 1.01 | 1.01 | 1 | 0.643 | 0.0986 | 0.12 | 0.0991
NCI-H1299 |  |  |  |  |  | 1.07 | 1.13 | 1.1 | 0.993 | 0.982 | 1.02 | 0.992 | 1 | 0.977 | 1.06 | 1.1 | 1.08 | 1.12 | 1.11
NCI-H2342 | 0.887 | 0.877 | 0.965 | 0.833 | 0.776 |  |  |  | 0.93 | 1.01 | 0.988 | 0.986 | 0.911 | 0.897 | 0.972 | 0.912 | 0.96 | 1.03 | 0.978
IA-LM |  |  |  |  |  | 0.807 | 0.843 | 0.651 | 1.01 | 1.03 | 1.02 | 1.08 | 0.996 | 0.818 | 1.05 | 1.06 | 1.31 | 1.34 | 1.37
NCI-H650 | 0.991 | 1.03 | 1.01 | 0.948 | 0.994 |  |  |  | 0.866 | 0.977 | 0.981 | 0.866 | 1.02 | 1.02 | 0.906 | 0.825 | 1.02 | 1.06 | 0.851
NCI-H661 | 0.547 | 0.559 | 0.56 | 0.644 | 0.588 |  |  |  | 1.03 | 0.96 | 0.973 | 0.963 | 1.02 | 0.969 | 0.934 | 0.919 | 0.996 | 1.02 | 1.01
